Structures are written as SMILES.

`CN(C)CCNC(=O)N1CCN(c2ccc(Cl)c(Cl)c2)CC1`: the melting point (in general, the temperature of the solid-liquid transition) was 80 to 83 °C. `CCOC(=O)Oc1ccc(/C=C(\C)c2ccc3c(c2)SC(C)(C)S3)cc1`: the melting point fell in the range of 93 to 94 °C. As to `O=C1c2cccc3c(N4CCCC4)c(Br)cc(c23)C(=O)N1O`, the melting point was in the range of 170 to 172 °C.

In turn, `CCOC(=O)Cn1c(CC)nc2c(O)cccc21` displayed a melting point of 148 to 150 °C.

With `COc1cc2ncnc(-c3cn(S(C)(=O)=O)c4ccccc34)c2cc1OC`, the melting point was above 220 °C. To `CCc1cn(S(=O)(=O)c2ccc(C)cc2)c2cc(C(=O)Nc3c(Cl)cncc3Cl)ccc12` belongs 147 to 149 °C.

Take `Cc1cc(=O)n(Cc2ccccc2)[nH]c1=O`: the melting point is above 200 °C.

`COCC#CCCCCC12OCC(C(C)(C)C)(CO1)CO2` had a melting point of 47 to 49 °C. On to `CN1CCN(C(=O)c2ccc3n2Cc2ccc(C(=O)O)cc2N(C(=O)c2ccc(C4CCCCC4)cc2)C3)CC1`, for which the melting point is 195 to 210 °C. `CN(C)c1cc(Oc2cccc(C(F)(F)F)c2)nc(C(=O)NN=CC(F)(F)C(F)(F)F)c1` returned a melting point of 108 to 109 °C.

For the molecule `CCC(=O)SCC(Cc1ccccc1)C(=O)Nc1cc(C)cc(C(=O)O)c1` (stereo unspecified), the melting point fell in the range of 151 to 153 °C. To `CS(=O)(=O)Oc1cc(N)c(F)cc1Cl` belongs 79 to 80 °C. As for `Cn1cc(-c2cccc(Br)c2)c(=O)c(-c2cccc(C(F)(F)F)c2)c1`, the figure is 151 to 153 °C. To `COc1ccc(C(=NO)c2cccc(F)c2F)c(O)c1Cl` belongs 198 to 199 °C; to `CC(=O)c1ccc(C(=O)N2Cc3cccn3Cc3ccccc32)cc1`, 135 to 137 °C. For the molecule `CCCCN1CCN(Cc2nc(-c3ccc4c(c3)Nc3ccccc3S4)cs2)CC1`, the melting point was in the range of 188 to 190 °C.

In the case of `CN1C(=O)CCC(C(=O)O)C1c1ccc2c(c1)OCO2` (stereo unspecified), the melting point lay within 231 to 232 °C.

In the case of `Cc1c2n(c3ccccc13)CCC(Br)C2=O` (stereo unspecified), the melting point was 126 to 128 °C. To `CCOc1cc2c(c3c1OC(C)(C)C3)C(c1cccc(C(=O)NC)c1)=NC(C)(C)C2` belongs 173 to 174 °C. Molecule `Nc1nc(N)c2cc(Cc3ccc4ccccc4c3)ccc2n1` displayed a melting point of 256 to 257 °C.

`COc1cccc(OC2CN([C@H]3CC[C@@H](c4cc5ccccc5[nH]4)CC3)C2)c1` yielded a melting point of 126 to 127 °C.

`Oc1ccc(-c2c[nH]c(-c3cccnc3)n2)cc1` returned a melting point of 315 to 318 °C.

Turning to `CC[C@H](C)[C@H](NC(=O)[C@H](Cc1ccccc1)NC(=O)OCc1ccccc1)C(=O)OC`, the melting point was 94.5 to 95.5 °C. As for `O=[N+]([O-])c1ccc(CN2CCNCCNCCNCC2)cc1`, the figure is 128 to 129 °C; as for `CC(C)(C)OC(=O)N[C@@H](CC1CCCCC1)[C@@H](O)[C@@H](O)C1CC1`, 83 to 85 °C.

In turn, `CC(CO)N1C(=O)N(c2ccc(Cl)cc2)CC1C` (stereo unspecified) gave a melting point of 108 to 110 °C. In turn, `COCCOCn1c(Cl)c(C=O)c2ccccc21` returned a melting point of 52.5 to 54 °C. As for `CCc1cc2c(s1)S(=O)(=O)NC2=O`, the figure is 143 °C; as for `CCOC(=O)Cc1cc(O)c(C)cc1O`, 134 °C; as for `C=CCNc1nc(NC(=O)N2CCCC2)c2scc(C)c2n1`, 98 to 101 °C. As to `COC(=O)C(C(=O)c1cn2c3c(cccc13)CCC2)c1cn(C(=O)OC(C)(C)C)c2ccccc12` (stereo unspecified), the melting point was 86 to 91 °C.

As for `Cc1c(C(=O)NCc2ccc3c(Br)c(OCC#N)ccc3c2)oc2ccccc12`, the melting point is 194 to 197 °C. `CC(C)(C)OC(=O)NC1CCc2ccccc2C(=Cc2ccccc2)C1=O` (stereo unspecified) yielded a melting point of 156 to 158 °C.

As for `COC(=O)C=Cc1cc(Oc2c(Cl)cc(C(F)(F)F)cc2Cl)ccc1[N+](=O)[O-]`, the melting point is 90 °C.

`CCn1ncc(-c2ccc3c(c2)c(C2=CCN(CCN4CCNC4=O)CC2)cn3-c2ccc(F)cc2)n1`: the melting point lay in the range of 143 to 145 °C.

Regarding `O=S1CCOCC1c1ccc(Cl)c(Cl)c1` (stereo unspecified), the melting point lay in the range of 100 to 103 °C.
